Experimental data reported in patent publication US11505556B2, “Halogenated derivatives of morphinans and uses thereof” (Xalud Therapeutics, Inc., priority 2017, dated 2022).

How the values were obtained:
[1] = test system: off-target screening panel; assay: Off-target inhibition screening (whole panel); conditions: 10 μM test concentration, hit = inhibition at or above the 50% level
Excerpt: In addition to the animal studies presented above in Examples 1-9, the results of in vitro testing of several of the compounds (i.e., XT-203, XT-204, and XT-206 through XT-217) are shown in Table 5 and Table 6. […]. Nine additional compounds had two or fewer off-target hits in the screening. […] These compounds spanned all of the tested N-modification classes. […]. Thus, the medicinal chemistry approach taken in this series of fluorinated compounds can yield low off-target activity and longer metabolic lifetime while preserving TLR4 antagonism. It is appreciated that further development of compounds in this class, using techniques known to those skilled in the art, may yield additional compounds with desirable pharmacologic and toxicologic characteristics.

[2] = test system: surgical pain (paw incision), paw withdrawal threshold; assay: Mouse paw incision model, morphine potentiation
Description: Manual testing with von Frey hairs was performed at the times indicated in the graphs. The animals were placed in individual Perspex boxes on a raised metal mesh for at least 40 min before the test. A series of graduated von Frey hairs (0.07, 0.16, 0.4, 0.6, and 1.0 g) were applied to the plantar surface of the left paw, in sequence. Each von Frey hair was applied 10 times on a one-sec-on-one-sec-off protocol, with each hair slightly bent. A paw withdrawal upon this hind-paw stimulation for a given von Frey hair registering 5 responses out of 10 trials was recorded the paw withdrawal threshold (PWT). A baseline PWT was determined each day for 3 days before surgery. […] In addition, the PWT was determined before dosing and 1, 2, and 4 hours after dosing.
In both cases, morphine was dosed at 1 mg/kg IP.
Each group had n=10 mice.

[3] = test system: hind paw incision pain; assay: Rat hind paw incision pain model, SC dosing, von Frey testing (Example 2); assay type: in vivo; conditions: for effect on pain threshold (von Frey), day 1 and day 5 dosing: SC 3x per day for 5 days, XT-203 28 or 30 mg/kg, (+)-NTX data not shown
Description: Rats were housed in temperature (23+/−3° C.) and light (12 hour:12 hour, light:dark cycle; lights on at 0700) controlled rooms with standard rodent chow and water available ad libitum.
Von Frey Test for Mechanical Allodynia: Rats received at least three 60 min habituations to the test environment prior to behavioral testing. Response thresholds to calibrated light pressure stimuli applied to the plantar surface of the paws was measured using the von Frey test. […] All testing was conducted blind with respect to group assignment. The behavioral responses were used to calculate the threshold, by fitting a Gaussian integral psychometric function using a maximum-likelihood fitting method, as described in detail previously (Id.). Allodynia was assessed pre- and post-drug delivery.
Behavior testing for pain responses by von Frey testing was used to establish pain thresholds in the affected hind paw. Because dosage was 3×/day, behavior testing was performed after the first and second dose of day 1 dosing (1.1, 1.2) and after the first and second dose of day 5 dosing (5.1, 5.2). Testing sessions were performed 30 minutes after the dose was administered.

[4] = test system: TLR4 (LPS-stimulated NO production, BV-2 mouse microglia cell line); assay: NO assay: inhibition of LPS-induced NO production in BV-2 microglia (iNOS cellular); assay type: cell-based; conditions: for inhibition of NO production from LPS-stimulated BV2 cells: FIGS. 8B to 8D
Excerpt: NO assay: Microglia are the resident cells of the innate immune system in the central nervous system, and TLR4 is primarily expressed by microglia rather than astrocytes or neurons in the CNS. Given this expression profile, the BV-2 mouse microglia cell line was used as the model system of microglia, as these cells recapitulate many of the responses of primary microglia with high fidelity. TLR4 activation induces the downstream production of the inflammatory factor NO, which contributes to the development of neuropathic pain and drug addiction. BV-2 murine microglia were grown in supplemented DMEM (including 10% FBS, 50 unit mL^−1 penicillin, 50 μg·mL^−1 streptomycin). BV-2 cells were detached from the flask by trypsin digestion when ˜80% confluence was reached. Cells were seeded at a density of 4×10^4 cells per well in 96-well plates. After overnight incubation, media was aspirated and changed to DMEM media without FBS. Cells were then treated with LPS (200 ng/ml) and different concentrations of the testing compounds. After 24 h treatment, 100 μL of supernatant media was removed after cells were treated for 24 h and added to flat black 96-well microfluor plates (Thermo Scientific, MA, USA). Subsequently, 10 μL of 2, 3-diaminonaphthalene (0.05 mg·mL^−1 in 0.62 M HCl) was added to each well and incubated for 15 min. The reaction was quenched by addition of 5 μL of 3 M NaOH and the plate was read on a Beckman Coulter DTX880 reader (Fullerton, Calif., USA) with excitation at 360 nm and emission at 430 nm.
N chain NTX: This experimentation involved an in vitro assay where mouse BV2 cells were treated with LPS, which results in the release of nitric oxide (NO). Blockade of TLR4 activity results in reduced NO production. Therefore, IC50 values were determined for test compounds that antagonize TLR4 activity. A series of test compounds were prepared, with different N-alkyl chains replacing the cyclopropyl methyl found in naltrexone. Cell viability was also measured by a standard assay, e.g., measurement of the release of cytoplasm-resident enzymes in the tissue culture supernatant or media to detect cell loss/lysis/rupture. A dose-inhibition curve was generated by testing the TLR4 antagonist compound for the ability to block LPS-stimulated iNOs induction. In FIG. 7, the inhibition levels across a range of doses are graphed, along with a regression curve. The IC50 value—50% inhibition level—is also provided, graphed against the length of the alkyl chain. Note that with longer N-alkyl chain the IC50 was reduced, although cell viability became problematic.
FIGS. 8B to 8D show the results of the inhibition of NO production from LPS-stimulated BV2 cells using the assay described above.

[5] = test system: bone fracture pain, paw withdrawal threshold; assay: Mouse bone fracture model, morphine potentiation
Description: Male adult C57BL6 mice, 8-10 weeks old, were anaesthetized with isoflurane mixed with oxygen throughout the surgical procedure. Animals were placed on a thermo-blanket temperature control system. The left knee area was disinfected with povidone/iodine-soaked cotton. A 0.5 cm incision was made on the knee, exposing the front area of the knee. A 27-gauge sterile needle was inserted into the tibial bone medullar canal to secure the fractured bone. The left tibia bone was gently broken using a pair of cushioned pliers. A single dose of antibiotic (Amoxipen 100 mg/kg, IP) was administered for prevention of infection after surgery. The animal was placed in a temperature-controlled recovery chamber until fully awake before being placed in a plastic cage bedded with clean, soft sawdust, with food and water easily accessible. The condition of the animals was closely monitored and recorded. All compounds, dissolved in normal saline, were dosed intraperitoneally in a volume of 5 ml/kg. PWT testing, as described above, was performed at 1, 2, and 4 hours.
In both cases, morphine was dosed at 2 mg/kg IP.

[6] = test system: Human hepatocytes; assay: Hepatocyte elimination of parent compound; conditions: hepatocytes
[7] = test system: acute nociceptive pain (paw incision); assay: Rat paw incision model, subcutaneous (Study R049); conditions: 30 mg/kg SC TID, five days; morphine 3 mg/kg as positive control
[8] = in vitro; conditions: monkey, cultured hepatocytes
[9] = target: hERG (Homo sapiens, UniProt Q12809); assay: hERG inhibition
Chain of hERG (Q12809 whole entry): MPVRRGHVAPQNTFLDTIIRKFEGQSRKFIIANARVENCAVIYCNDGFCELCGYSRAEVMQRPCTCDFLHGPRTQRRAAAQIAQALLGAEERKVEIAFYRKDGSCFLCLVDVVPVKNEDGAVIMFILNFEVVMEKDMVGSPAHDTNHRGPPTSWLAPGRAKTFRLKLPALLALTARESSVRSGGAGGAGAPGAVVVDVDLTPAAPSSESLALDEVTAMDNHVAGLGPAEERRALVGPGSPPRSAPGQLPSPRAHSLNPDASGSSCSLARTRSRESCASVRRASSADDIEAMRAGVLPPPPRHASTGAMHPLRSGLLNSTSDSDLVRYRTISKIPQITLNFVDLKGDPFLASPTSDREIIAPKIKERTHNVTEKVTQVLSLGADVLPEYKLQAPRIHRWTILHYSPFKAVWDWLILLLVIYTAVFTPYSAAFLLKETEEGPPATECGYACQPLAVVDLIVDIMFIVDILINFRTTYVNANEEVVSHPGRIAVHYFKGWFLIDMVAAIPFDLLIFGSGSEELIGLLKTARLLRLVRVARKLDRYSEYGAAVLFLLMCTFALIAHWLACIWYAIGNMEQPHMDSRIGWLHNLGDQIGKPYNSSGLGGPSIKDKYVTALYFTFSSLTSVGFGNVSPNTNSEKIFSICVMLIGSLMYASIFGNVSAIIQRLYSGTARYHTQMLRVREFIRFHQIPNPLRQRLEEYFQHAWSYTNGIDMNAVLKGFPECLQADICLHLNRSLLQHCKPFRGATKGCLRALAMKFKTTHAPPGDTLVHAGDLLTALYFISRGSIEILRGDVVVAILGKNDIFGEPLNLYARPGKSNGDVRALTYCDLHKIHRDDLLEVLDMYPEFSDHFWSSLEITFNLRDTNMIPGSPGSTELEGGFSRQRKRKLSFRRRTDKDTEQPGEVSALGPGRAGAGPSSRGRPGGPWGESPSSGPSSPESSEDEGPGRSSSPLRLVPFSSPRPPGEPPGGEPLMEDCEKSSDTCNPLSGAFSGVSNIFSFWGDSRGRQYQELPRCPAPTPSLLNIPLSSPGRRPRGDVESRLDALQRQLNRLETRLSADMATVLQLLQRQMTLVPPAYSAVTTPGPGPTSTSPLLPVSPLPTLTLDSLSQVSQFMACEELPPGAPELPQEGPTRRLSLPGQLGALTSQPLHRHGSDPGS

[10] = test system: EAE (multiple sclerosis model) pain; assay: Experimental Autoimmune Encephalomyelitis (EAE) model, mechanical allodynia; assay type: in vivo, rat; conditions: both paws
Excerpt: The Experimental Autoimmune Encephalomyelitis (EAE) Model has been developed as a rat model of multiple sclerosis (Sloane, E. et al. Brain Behav. Immun. 2009, 23, 92-100). The model encompasses the injection of myelin oligodendrocyte glycoprotein (MOG) or similar glycoprotein to establish and antibody reaction that damages spinal nerve fibers leading to a progression of motor and sensory deficits. The rapid progression of deficits can be slowed by reduction of the MOG dose, enabling testing for pain responses prior to the development of hind limb paresis.
Reduced-dose MOG or saline (sham) was administered intradermally at the base of the tail. Mechanical allodynia pain testing was performed on hind left and right paws by application of Semmes-Weinstein (“von Frey”) monofilaments calibrated for different bending forces for 8 seconds to determine the paw-withdrawal threshold. On day 15 post EAE induction, after reduction in the paw-withdrawal threshold (establishment of mechanical allodynia pain), subcutaneous injection of 15 mg/kg XT-203 or saline was administered three times/day for 15 days. Behavioral data were analyzed with two-way ANOVA. For all tests, statistical significance was set to p<0.05 (*).

In the case of `O=C1CC[C@]2(O)[C@@H]3Cc4ccc(O)c5c4[C@]2(CCN3CC2CC2)[C@@H]1O5` [(+)-naltrexone, reference compound], the “off-target hits in the screening” value [1] is reported as “none”, the “off-target hits in the screening” value ([1]; listed as XT-202) is reported as “NONE” and the “PWT of the ipsilateral hind-paw, 2 hours post-dosing” value ([2]; (+)-NTX 18 mg/kg IP alone) is reported as 0.22 ± 0.050 g. The “PWT of the ipsilateral hind-paw, 4 hours post-dosing” value ([2]; (+)-NTX 18 mg/kg IP alone) was 0.14 ± 0.32 g, the “PWT of the ipsilateral hind-paw, 1 hour post-dosing” value ([2]; (+)-NTX 18 mg/kg IP alone, baseline 0.11±0.015 g) was 0.31 ± 0.056 g and the “effect on pain threshold (von Frey), day 1 and day 5 dosing” value [3] was “not effective”. For the same compound, the “inhibition of NO production from LPS-stimulated BV2 cells” value [4] was “good viability and inhibition”, the IC50 ([4]; LPS (200 ng/ml), 24 h, BV-2 cells, Table 3) was 50 to 60 µM and the IC50 ([4]; Table 6, unit inferred, footnote: Indicator of TL4 antagonism) was 50 to 60 µM. The “adverse effects during observation” value [5] was “No significant adverse effects”.

For `COc1ccc2c3c1O[C@@H]1C(F)CCC4[C@H](C2)N(CC2CC2)CC[C@]341` (some centres unmarked) [XT-203], the “off-target hits in the screening” value [1] was “activity at two targets”, the “PWT, 2 hours after dosing” value ([2]; XT-203 10 mg/kg IP alone) was 0.25 ± 0.059 g and the “PWT, 4 hours after dosing” value ([2]; XT-203 10 mg/kg IP alone) was 0.09 ± 0.012 g. The “PWT, 1 hour after dosing” value ([2]; XT-203 10 mg/kg IP alone, 0.11±0.015 g before dosing) was 0.32 ± 0.058 g, the “half-life in human hepatocytes compared to (+)-NTX and AK-17” value [6] was “enhanced half-life” and the “efficacy in rat paw incision model at the high dose” value [7] was “significant efficacy”. The “effect on pain threshold (von Frey), day 1 and day 5 dosing” value [3] was “substantial effects”, the “effect during day 5 testing compared with morphine 3 mg/kg” value ([3]; XT-203 28 or 30 mg/kg SC 3x per day) was “matching the response to morphine” and the half-life [8] was 13.7 min. The IC50 [9] was greater than 100 µM, the “pain responses in MOG-treated rats” value ([10]; 15 mg/kg SC three times/day for 15 days from day 15 post EAE induction) was “did reverse pain responses” and the “pain response in sham non-MOG rats” value ([10]; 15 mg/kg SC three times/day for 15 days) was “no effect”. The “inhibition of NO production from LPS-stimulated BV2 cells” value [4] was “good viability and inhibition”, the IC50 ([4]; Mus musculus, Microglia, Table 6, unit inferred, footnote: Indicator of TL4 antagonism) was 30 µM and the IC50 ([4]; Mus musculus, LPS (200 ng/ml), 24 h, BV-2 cells, Table 3) was 30 to 50 µM. The “adverse effects during observation” value [5] was “No significant adverse effects”.
